The test concerns the target T1, 1-deoxy-D-xylulose-5-phosphate synthase (Escherichia coli (strain K12), UniProt P77488).
T1 sequence (P77488 whole entry): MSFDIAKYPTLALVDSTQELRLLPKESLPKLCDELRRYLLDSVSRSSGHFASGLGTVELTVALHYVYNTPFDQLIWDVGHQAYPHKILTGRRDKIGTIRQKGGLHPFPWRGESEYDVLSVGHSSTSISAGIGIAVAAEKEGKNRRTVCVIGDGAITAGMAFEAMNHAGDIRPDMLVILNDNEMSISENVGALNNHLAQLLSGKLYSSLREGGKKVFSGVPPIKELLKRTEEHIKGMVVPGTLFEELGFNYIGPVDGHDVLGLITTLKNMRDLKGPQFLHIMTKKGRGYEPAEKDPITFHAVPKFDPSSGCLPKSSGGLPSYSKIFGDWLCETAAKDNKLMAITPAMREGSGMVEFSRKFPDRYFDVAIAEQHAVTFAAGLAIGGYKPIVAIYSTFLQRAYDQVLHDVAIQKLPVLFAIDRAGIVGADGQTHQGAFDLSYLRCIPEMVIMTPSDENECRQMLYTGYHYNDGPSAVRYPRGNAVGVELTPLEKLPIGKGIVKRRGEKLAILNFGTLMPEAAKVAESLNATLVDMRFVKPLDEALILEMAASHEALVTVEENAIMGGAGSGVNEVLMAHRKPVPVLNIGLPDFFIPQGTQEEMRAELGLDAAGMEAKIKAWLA
The experiment in a line: DXP Synthase Inhibition Assay. The conditions noted are these: pH 8; 37 °C. As to the method:
Reaction mixtures containing HEPES (100mM, pH 8.0, 2mM MgCl2, 5mM NaCl), ThDP (1mM), BSA (1mg/mL), DMSO (10%, v/v), ᴅ-GAP (30µM), pyruvate (80µM), and various concentrations of nitroso inhibitor were preincubated at 37°C for 5 min. Enzyme reactions were initiated by addition of DXP synthase (0.1µM). Aliquots (150µL) of the enzymatic mixture were removed between 0.5 and 3 min and quenched in ice-cold methanol (150µL).

A word on the IC50: it is the concentration that inhibits the measured activity by half.

The structures appear in SMILES notation. Bounds are passed on as bounds.

`Cc1nn(C(C)C)c(C)c1N=O` [1‐isopropyl‐3,5‐dimethyl‐4‐nitrosopyrazole (Substrate 9)] displayed an IC50 of more than 2000 µM.
To `COc1ccc2ccc(O)c(N=O)c2c1` [7‐methoxy‐1‐nitrosonaphthalen‐2‐ol (Substrate 8)] belongs more than 2000 µM.
To `CN(C)c1ccc(N=O)cc1` [NDMA (Substrate 4)] belongs 844 µM; to `O=Nc1ccccc1` [NOB], 208 µM.

The values above are taken from BindingDB's records for doi:10.1002/cbic.201300187 (The Johns Hopkins University, 2013).
